Assay [1] concerns M. abscessus subsp. abscessus NTM 0082. The experiment in a line: MIC of CF NTM clinical isolates. The settings on record: for MIC: M. abscessus subsp. abscessus NTM 0082. The assay is classed as cell-based.
In another assay the test system is M. gordonae NTM 0274. The experiment in a line: MIC of CF NTM clinical isolates. To be noted: for MIC: M. gordonae NTM 0274. The assay is classed as cell-based.
Another assay concerns MABSC NTM 0082. The experiment in a line: 2D checkerboard analysis, antibiotic MIC with PAAG. The assay is classed as cell-based, Mycobacterium abscessus complex. To be noted: for MIC: Mycobacteroides abscessus. The method, then: (§1) PAAG synergy with conventional antibiotics was determined by 2D checkerboard analysis. PAAG's antimicrobial activity and antibiotic potentiation in a biofilm were determined by minimum biofilm eradication concentration (MBEC) and 2D MBEC checkerboard assays to determine antibiotic potentiation with PAAG within a biofilm.

Assay [2] deals with M. abscessus subsp. abscessus NTM 0079. As to the kind of experiment: MIC of CF NTM clinical isolates. The settings on record: for MIC: M. abscessus subsp. abscessus NTM 0079. The assay is classed as cell-based.
In assay [3] the test system is M. avium complex NTM 0260. The experiment in a line: MIC of CF NTM clinical isolates. The assay is classed as cell-based. The settings on record: for MIC: M. avium complex NTM 0260.
The next assay relates to MAC NTM 0260. The experiment in a line: 2D checkerboard analysis, antibiotic MIC with PAAG. The assay is classed as cell-based, Mycobacterium avium complex. To be noted: for MIC: Mycobacterium avium. The protocol: as §1
A further assay concerns MABSC biofilm. As to the kind of experiment: 2D MBEC checkerboard assay, antibiotic potentiation in biofilm. The assay is classed as cell-based, Mycobacterium abscessus complex. The protocol: as §1
In assay [4] the test system is M. avium complex NTM 0813. The experiment in a line: MIC of CF NTM clinical isolates. The assay is classed as cell-based. To be noted: for MIC: M. avium complex NTM 0813.
The test system of assay [5] is M. abscessus subsp. bolletii NTM 0003. As to the kind of experiment: MIC of CF NTM clinical isolates. The assay is classed as cell-based. The settings on record: for MIC: M. abscessus subsp. bolletii NTM 0003.
The next assay relates to MAC biofilm. As to the kind of experiment: 2D MBEC checkerboard assay, antibiotic potentiation in biofilm. The assay is classed as cell-based, Mycobacterium avium complex. The protocol:
as §1
In addition, PAAG potentiates antibiotics against NTM in biofilms as measured with minimum biofilm eradication concentration (MBEC) (Table 3).

For a further assay, the system named is MAC persister cells. As to the kind of experiment: PAAG treatment of antibiotic induced NTM persisters. The assay is classed as cell-based, Mycobacterium avium complex. From the text:
(§2) The cultures were then pelleted, washed free of antibiotics and resuspended in broth free of any antimicrobials (i.e., recovery phase).

The subject of the next assay is NTM biofilms. The experiment in a line: Optical measurement of biofilm thickness. The assay is classed as cell-based. To be noted: PAAG at 50, 100 and 200 μg/mL. An excerpt:
The biofilm thickness was optically measured assuming the Refractive Index (RI) of the biofilm was equal to water per Bakke & Olsson, et al., (1986).

The next assay deals with MABSC persister cells. The experiment in a line: PAAG treatment of antibiotic induced NTM persisters. The assay is classed as cell-based, Mycobacterium abscessus complex.
Source text: as §2

The test system of a further assay is MABSC cultures. The experiment in a line: Modified time kill analysis with 7-day recovery phase. The assay is classed as cell-based, Mycobacterium abscessus complex. To be noted: PAAG 250 μg/mL. The method, then: For MABSC cultures, a modified time kill analysis was performed over a period of 12 days and included a 7-day recovery phase in antimicrobial free media post treatment. PAAG treatment led to eradication of MABSC cell population within 48 hours of treatment.

Assay [6] concerns biofilm cultures of Mycobacteria isolates. The experiment in a line: Static biofilm assay with crystal violet staining. The assay is classed as cell-based. To be noted: 48 hour biofilms treated for an hour; increasing dose of PAAG. The method, then: (§3) Biofilm cultures of Mycobacteria isolates were grown for 48 hours in static 96-well plates at 37 C on a static incubator. The biofilm cultures were treated using PAAG alone and in formulation with 1.38% glycerol for an hour. The MBEC assay measured the logarithmic reduction in the growth of biofilm by serial dilution and spot plate method. […] The static assay was used to measure the decrease in biofilm density as the dose of PAAG increases by staining each well with crystal violet and measuring the biofilm densities at 590 nm.
The biofilm biomass was quantified using crystal violet staining in static TCP biofilm assay.

The test system is the same in assay [7]. As to the kind of experiment: MBEC assay, logarithmic reduction of biofilm growth. The assay is classed as cell-based. To be noted: 48 hour biofilms treated for an hour; varies from strain to strain. The method, then: as §3
The next assay concerns MAC cultures. As to the kind of experiment: Modified time kill analysis with 7-day recovery phase. To be noted: PAAG 250 μg/mL. The assay is classed as cell-based, Mycobacterium avium complex. The method, then:
For MAC cultures, a modified time kill analysis was performed over a period of 21 days and included a 7-day recovery phase in antimicrobial free media post treatment. PAAG treatment led to eradication of MAC cell population within 4 days of treatment.

Where [8] appears, read: Mycobacteroides abscessus, read-out: MIC.
The mark [9] stands for this setting: Mycobacterium avium, read-out: MIC.

As usually defined, the MIC is the least concentration at which growth counts as inhibited.

Like-named read-outs stand apart in the source and are kept apart here.

Turning to `CO[C@H]1/C=C/O[C@@]2(C)Oc3c(C)c(O)c4c(O)c(c(/C=N/N5CCN(C)CC5)c(O)c4c3C2=O)NC(=O)/C(C)=C\C=C\[C@H](C)[C@H](O)[C@@H](C)[C@@H](O)[C@@H](C)[C@H](OC(C)=O)[C@@H]1C` [Rifampicin], the MIC in [1] (setting [8]) was 2 µg/mL; in the assay on M. gordonae NTM 0274 (Mycobacterium gordonae, NTM0274, read-out: MIC), 2 µg/mL; with MABSC NTM 0082 (antibiotic alone, read-out: MIC) it was 2 µg/mL; in the assay on MABSC NTM 0082 (antibiotic with PAAG at half of its MIC (128 μg/mL), read-out: MIC with PAAG), 0.06 µg/mL; in assay [2] (setting [8]), 2 µg/mL; in assay [3] (setting [9]), 4 µg/mL. For the same compound, the MIC in the assay on MAC NTM 0260 (antibiotic alone, MAC NTM 0260, read-out: MIC) came to 4 µg/mL; in the assay on MAC NTM 0260 (read-out: MIC with PAAG), 1 µg/mL; in [4] (setting [9]) it was 4 µg/mL; in assay [5] (setting [8]), 8 µg/mL. The “CLSI clinical breakpoint category” value in [1] (Rifampicin breakpoints, NTM 0082) is listed as “R (≥1 μg/mL (R) for Rifampicin)”; in the assay on M. gordonae NTM 0274 (Rifampicin breakpoints, NTM 0274) it was “R (≥1 μg/mL (R) for Rifampicin)”; in assay [2] (Rifampicin breakpoints, NTM 0079), “R (≥1 μg/mL (R) for Rifampicin)”; in assay [3] (Rifampicin breakpoints, NTM 0260), “R (≥1 μg/mL (R) for Rifampicin)”; in assay [4] (Rifampicin breakpoints, NTM 0813), “R (≥1 μg/mL (R) for Rifampicin)”; in assay [5] (Rifampicin breakpoints, NTM 0003) it was “R (≥1 μg/mL (R) for Rifampicin)”. Besides, the “Fold Change” value in the assay with MABSC NTM 0082 (MIC alone vs MIC with PAAG 128 μg/mL) is recorded as 21; with MAC NTM 0260 (MIC alone vs MIC with PAAG 8 μg/mL, MAC NTM 0260) it was 4; with MABSC biofilm (MBEC alone vs MBEC with PAAG 128 μg/mL), more than 512; with MAC biofilm (MBEC alone vs MBEC with PAAG 8 μg/mL), more than 32. The MBEC in the assay on MABSC biofilm (antibiotic alone) is more than 1024 µg/mL; in the assay on MAC biofilm (antibiotic alone), 8 µg/mL. Also, the figures for the “MBEC with PAAG” value in the assay on MABSC biofilm (antibiotic with PAAG at half of its MBEC (128 μg/mL)) and in the assay with MAC biofilm (antibiotic with PAAG at half of its MBEC (8 μg/mL)) were 2 µg/mL and less than 0.25 µg/mL, respectively.

“poly(acetyl, arginyl) glucosamine [PAAG]”: the “CFU/mL after PAAG treatment of persisters” value in the assay with MAC persister cells (MAC cultures surviving antibiotic treatment, PAAG for 10 days) was determined as 0 CFU/mL; in the assay on MABSC persister cells (MABSC cultures surviving antibiotic treatment, PAAG for 4 days) it was 0 CFU/mL. The “regrowth of persisters after PAAG treatment” value in the assay with MAC persister cells (MAC, recovery in fresh broth 24 days) is “none of the persisters in either strain showed regrowth”; with MABSC persister cells (MABSC, recovery in fresh broth 12 days) it was “none of the persisters in either strain showed regrowth”. For the same compound, the minimal inhibitory concentration (MIC) worked out at 250 µg/mL in [1]; 32 µg/mL in the assay with M. gordonae NTM 0274; 250 µg/mL in assay [2]; 16 µg/mL in assay [3]; 16 µg/mL in assay [4]; 128 µg/mL in assay [5]. Also, the biofilm thickness entry with NTM biofilms was “reduction in BCC biofilm thickness in a dose dependent manner”. Also, the “bacterial viability at depth in biofilm” value in the assay with NTM biofilms (depths >5-10 μm) is “significantly decreased bacterial viability”. Moreover, the “time to eradication of MABSC cell population” value in the assay on MABSC cultures (time kill over 12 days) is not above 48 h. Moreover, the killing outcome with MABSC cultures (rapid growing MABSC) and with MAC cultures (slow growing MAC) was “complete eradication” throughout. For the same compound, in [6], the “biofilm density (crystal violet, 590 nm)” value is “dose dependent reduction in the density of the bacteria”. Further, the “log reduction in biofilm compared to the control” value in assay [7] is “two to three log reduction”. The “time to eradication of MAC cell population” value in the assay on MAC cultures (time kill over 21 days) is not above 4 days.

The record behind these values is patent US20260151425A1, “COMPOSITIONS AND METHODS OF USE THEREOF” (SYNEDGEN, INC., priority 2020, published 2026).
